Test results reported in ChEMBL document CHEMBL6182920, “The Discovery of C7-Substituted Norbornyl Bisamides as RXFP1 Small Molecule Agonists” (J Med Chem, 2025).
≈ marks a conversion by molar mass, not a printed value.

Assays:
Relaxin receptor 1 [1] = biological target: T1, Relaxin receptor 1 (Homo sapiens, UniProt Q9HBX9); test: Agonist activity at human RXFP1 stably expressed in HEK293 cells assessed as intracellular cAMP accumulation incubated for 30 mins by HTRF assay
T1 sequence (Q9HBX9 whole entry): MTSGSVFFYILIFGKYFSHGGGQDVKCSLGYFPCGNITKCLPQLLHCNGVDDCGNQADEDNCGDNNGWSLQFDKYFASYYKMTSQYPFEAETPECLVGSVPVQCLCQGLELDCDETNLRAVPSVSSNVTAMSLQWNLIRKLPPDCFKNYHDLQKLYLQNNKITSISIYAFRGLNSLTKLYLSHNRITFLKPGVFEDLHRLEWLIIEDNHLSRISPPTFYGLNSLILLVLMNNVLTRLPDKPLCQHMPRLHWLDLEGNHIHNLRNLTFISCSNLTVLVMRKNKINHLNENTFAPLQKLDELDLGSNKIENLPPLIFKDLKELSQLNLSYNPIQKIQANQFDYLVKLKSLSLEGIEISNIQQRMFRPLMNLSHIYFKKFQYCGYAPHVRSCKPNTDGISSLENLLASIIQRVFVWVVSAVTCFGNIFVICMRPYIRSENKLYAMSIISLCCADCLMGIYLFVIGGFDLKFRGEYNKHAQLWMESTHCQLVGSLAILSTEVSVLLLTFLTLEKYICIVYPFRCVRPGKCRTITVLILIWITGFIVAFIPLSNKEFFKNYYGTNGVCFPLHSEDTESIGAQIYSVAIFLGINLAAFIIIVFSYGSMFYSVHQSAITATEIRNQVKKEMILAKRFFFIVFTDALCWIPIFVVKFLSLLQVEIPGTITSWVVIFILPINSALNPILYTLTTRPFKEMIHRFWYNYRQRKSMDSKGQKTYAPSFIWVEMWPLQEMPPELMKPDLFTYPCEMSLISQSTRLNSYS

Relaxin receptor 1 [2] = biological target: T2, Relaxin receptor 1 (Rattus norvegicus, UniProt Q6R6I6); test: Agonist activity at rat RXFP1 stably expressed in HEK293 cells assessed as intracellular cAMP accumulation incubated for 30 mins by HTRF assay; type: cell-based
T2 sequence (Q6R6I6 whole entry): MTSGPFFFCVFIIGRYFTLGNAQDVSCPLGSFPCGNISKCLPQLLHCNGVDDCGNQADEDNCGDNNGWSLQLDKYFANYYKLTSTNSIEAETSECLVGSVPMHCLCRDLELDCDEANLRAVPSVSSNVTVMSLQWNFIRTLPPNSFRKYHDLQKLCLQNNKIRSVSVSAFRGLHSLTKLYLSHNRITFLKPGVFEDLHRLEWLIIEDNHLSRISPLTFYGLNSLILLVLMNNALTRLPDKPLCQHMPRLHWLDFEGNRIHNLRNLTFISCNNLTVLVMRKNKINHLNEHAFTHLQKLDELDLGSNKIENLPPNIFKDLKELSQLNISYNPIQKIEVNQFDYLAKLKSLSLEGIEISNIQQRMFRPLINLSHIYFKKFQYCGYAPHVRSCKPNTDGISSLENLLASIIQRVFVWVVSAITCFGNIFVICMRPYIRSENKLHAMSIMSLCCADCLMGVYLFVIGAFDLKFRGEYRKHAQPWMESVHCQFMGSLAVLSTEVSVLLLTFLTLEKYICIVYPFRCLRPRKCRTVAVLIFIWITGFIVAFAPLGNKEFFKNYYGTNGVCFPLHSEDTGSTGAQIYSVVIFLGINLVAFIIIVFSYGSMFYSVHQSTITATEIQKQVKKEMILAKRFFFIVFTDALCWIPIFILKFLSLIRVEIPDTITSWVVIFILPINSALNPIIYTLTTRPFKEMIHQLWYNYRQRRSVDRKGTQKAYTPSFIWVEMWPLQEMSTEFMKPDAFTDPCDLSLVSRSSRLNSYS

[3] = Thermodynamic aqueous solubility of compound in phosphate buffer at pH 7.4 by reversed-phase ultrahigh pressure liquid chromatography; type: physicochemical; details: phosphate buffer, read-out: Therm_solubility
[4] = Clearance in Sprague-Dawley rat at 1 mg/kg, iv; type: ADME, organism-based; details: in vivo
[5] = biological target: T3, Nuclear receptor subfamily 1 group I member 2 (Homo sapiens, UniProt O75469); test: Activation of PXR (unknown origin)
T3 sequence (O75469 whole entry): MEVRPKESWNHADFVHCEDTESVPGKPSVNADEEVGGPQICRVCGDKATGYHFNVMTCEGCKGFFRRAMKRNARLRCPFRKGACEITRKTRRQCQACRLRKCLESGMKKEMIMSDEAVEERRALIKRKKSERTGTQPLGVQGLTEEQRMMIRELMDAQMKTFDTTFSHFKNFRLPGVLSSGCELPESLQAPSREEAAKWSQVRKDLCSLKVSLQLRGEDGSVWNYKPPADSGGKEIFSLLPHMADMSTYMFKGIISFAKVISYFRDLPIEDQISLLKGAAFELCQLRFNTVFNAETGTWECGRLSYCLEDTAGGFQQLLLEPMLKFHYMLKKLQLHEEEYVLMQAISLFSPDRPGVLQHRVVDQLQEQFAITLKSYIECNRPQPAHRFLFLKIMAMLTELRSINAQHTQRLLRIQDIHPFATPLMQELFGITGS

L-type calcium channel = L-type calcium channel (Homo sapiens, UniProt O60840+Q01668+Q13698+Q13936); test: Inhibition of L-type calcium channel (unknown origin) at 10 uM by patch clamp assay relative to control

EC50 (Relaxin receptor 1 [1]): 0.002 µM
EC50 (Relaxin receptor 1 [2]): 0.045 µM
solubility thermodynamic [3]: 130 µg/mL (≈ 179 µM)
clearance [4]: 2.5 mL/min/kg
EC50 [5]: > 50 µM
inhibition at 10 µM (L-type calcium channel): 33%
SMILES: CNC(=O)OC(C(=O)O)c1ccc(F)c(-c2ccc(OC)c(C(=O)N[C@H]3[C@@H](C(=O)Nc4ccc(F)c(C(F)(F)F)c4)[C@H]4CC[C@@H]3/C4=C\C3CC3)c2)c1 (stereo in doubt; 39)
